Test results reported in US20260000079A1, “COMPOSITIONS AND METHODS FOR MODULATING IMMUNITY IN PLANTS” (BOYCE THOMPSON INSTITUTE FOR PLANT RESEARCH, INC., priority 2019, published 2026).

How the values were obtained:
M. incognita J2 larvae = assay: J2 larvae touching roots of pretreated seedlings in PF-127 gel; format: in vivo, Meloidogyne incognita; conditions: 48 hours pretreatment
Protocol: FIG. 4A provides a schematic of the experimental designs for assessing activation of defense pathways and resistance to nematodes and bacteria. […] Bacterial growth was assayed 3 days post inoculation. Data are averages±s.d. (n=17). […] Arabidopsis seedlings were treated with buffer or the indicated concentrations of ascr #18 for 48 hours before inoculation with approximately 300 freshly hatched M. incognita J2 larvae. The numbers of root galls of infected plants were counted 6 weeks post inoculation. Data are averages±s.d. (n≥15). […] Arabidopsis seedlings were treated with the indicated concentrations of ascr #18 for 48 hours before transfer into 12-well plates containing Pluronic® F-127 gel with ˜200 freshly hatched M. incognita J2 larvae. Larvae touching root tips (FIG. 4D) or the whole area of roots (FIG. 4E) were counted at 6 hours post seedling transfer. Data are average±s.d. (n=12). […] Transcript levels were determined by qRT-PCR and plotted as relative fold-change compared to mock treated plants. Data are averages±s.d (n≥6). *P≤0.05; **P≤0.005; ***P≤0.0005; two-tailed t-test.
FIG. 6A provides a graph of the number of nematodes touching the root tips of Arabidopsis wildtype and acx1acx5 treated with 50 nM ascr #18 or ascr #9 for 48 hours before transfer into 12-well plates containing Pluronic® F-127 gel with ˜200 freshly hatched M. incognita J2 larvae. Larvae touching the terminal part of roots were counted at 6 hours after seedling transfer. Data are average±s.d. (n=12). FIG. 6B provides a schematic of a Petri dish as shown in the plate layout. […] Larvae in the indicated scoring areas were counted after 4 hours. […] FIG. 6D provides the attraction index for different concentrations of ascr #18, ascr #9, or ascr #18/ascr #9 mixtures measured using the layout shown in FIG. 6C. […]
In a second experiment, wildtype and acx1acx5 were treated with ascr #18 for 48 hours prior to moving seedlings to a PF-127 gel containing approximately 200 M. incognita second-stage larvae (J2) (FIG. 4A, 4D, 4E). J2 larvae touching the roots were counted at 6 hours post seedling transfer.

Arabidopsis leaves = assay: LC-MS time course of Arabidopsis leaves infiltrated with ascr #18; format: in vivo, Arabidopsis thaliana; conditions: Arabidopsis leaves infiltrated with 1 μM ascr #18
Text: FIG. 2A provides LC-MS analysis of tomato roots treated with ascr #18 or ^13C2-labeled ascr #18. Plants treated with ^13C2-labeled ascr #18 show peaks at 333.21932 and 249.12542, representing [M-H]^− of ^13C2-ascr #18 and ^13C2-ascr #9, but not at 331.21261 and 247.11871, which correspond to [M-H]^− of ascr #18 and ascr #9, and vice versa. Structures of ascr #18 and ascr #9 indicating the positions of the ^13C2-label are shown above ion chromatograms. Peaks marked with an asterisk represent unrelated peaks. FIGS. 2B and 2C provide graphs showing the relative abundances of ascr #18 and ascr #9, respectively, as measured by LC-MS. Four-week old Arabidopsis leaves were infiltrated with 1 μM ascr #18, and leaf tissue were harvested for LC-MS analyses over a period of 96 hours post infiltration of ascr #18. Data are averages±SEM (n=3). FIG. 2D provides LC-MS analyses of tomato leaves infiltrated with 1 μM ascr #18. Tissues were collected over a 12 hour period. Abundances of ascr #18 and ascr #9 are shown as the peak area, as measured by LC-MS. […] To test whether microbes are required for the observed metabolic transformations, leaves of 4-week old Arabidopsis plants were directly infiltrated with ascr #18 and leaf tissue was subsequently harvested for analysis by LC-MS as above. […] About 50% of ascr #18 was metabolized during the first 12 hours, during which time concomitant accumulation of ascr #9 was observed. Formation of ascr #9 was also observed in leaves of 4-week old tomato plants infiltrated with ascr #18 (FIG. 2D).

CC1O[C@@H](O[C@@H](C)CCCCCCCCC(=O)O)C(O)C[C@H]1O (stereo in doubt) [ascr #18, (10R)-(3′R,5′R-dihydroxy-6′S-methyl-(2H)-tetrahydropyran-2-yloxy)-undecanoic acid]
effect on M. incognita behavior (J2 larvae touching roots) (M. incognita J2 larvae; wildtype or mutant, 1 μM): did not significantly affect
numbers of J2 larvae touching the root tips or whole root area (M. incognita J2 larvae; wildtype, 50 nM, counted 6 hours post transfer): significantly reduced
ascr #18 metabolized (Arabidopsis leaves; first 12 hours): About 50%

C[C@H](CCC(=O)O)O[C@@H]1O[C@@H](C)[C@H](O)C[C@H]1O [ascr #9]
effect on infection (J2 larvae touching root tips) (M. incognita J2 larvae; wildtype or acx1acx5, 50 nM): did not significantly reduce infection
time of peak ascr #9 concentration post-infiltration (Arabidopsis leaves): ≤ 12 h
ascr #9 concentration at 96 hours (Arabidopsis leaves; 96 hours): very low levels
